The test system of one experiment is Target C. In words: HiBit protein abundance assay, Target C. Format: cell-based. To be noted: Homo sapiens; K562 HiBiT-modified cells, 24 hours, luminescence. As to the method:
(§1) Compounds described herein were used to screen for effects on quantitative protein abundance using a HiBit assay system (Promega). Quantitative protein abundance was determined by measuring the protein levels of HiBit-tagged protein targets expressed in cell culture via luminescence using the Nano-Glo HiBiT Lytic Detection System, which uses a split complementation assay format to reconstitute NanoBiT enzyme to generate a luminescent signal. A protein abundance assay was developed such that endogenous protein targets could be modified with the HiBiT peptide tag and their abundance could be assessed after compound treatment. Briefly, K562 cell lines containing a HiBiT-modification were treated with various compounds described herein (e.g., compounds of Formulas (I), (II), or (III)). After treatment for 24 hours, the protein abundance of a specific target was determined by measuring luminescence. • Promega Nano-Glo HiBiT Lytic Detection System (cat #N3030) • Corning 384-well TC-treated microplates (cat #3570) • Synthego Engineered Cells Knock-In Clones Cells were maintained in IMDM with 10% FBS. Before the assay, cells were diluted with phenolphthalein-free growth media (IMDM+1% FBS media) and were seeded in a 384-well plate at a density of 10000 cells/well (for each cell line listed in Table 6). Each compound was prepared as a 10-point 3-fold serial dilution in DMSO with the top dose at a final concentration of 10 μM in the well. Unmodified K562 cells were added at the previously specified density with DMSO to serve as an assay baseline and positive control (PC) and DMSO only with the respective modified cell lines was added to the negative control (NC) columns. Final DMSO concentration was kept at or below 0.25%. Treated cell plates were placed in an incubator at 37° C. with 5% CO2 for 24 hours. After 24 hours, 25 μL of Complete HiBit Lytic reagent was added to each well at room temperature (e.g. one plate requiring 10 mL Lytic Buffer, 100 μL LgBiT Protein, 200 μL Lytic Substrate), shaken for 5 minutes at 600 RPM, then left to sit for 10 minutes for signal to stabilize before reading on a Spark Cyto plate reader (Tecan) with a 500 ms measurement time. To determine compound effects on protein abundance of each target in Table 6, the percent response for each respective cell line was calculated at each compound concentration as follows: For the normalized response at each concentration, a four-parameter logistical regression was fit to the data and the response was interpolated at the 50% value to determine a concentration for protein abundance at 50% (IC50) the untreated control.

The subject of experiment [1] is HiBiT-tagged MYB protein in K562 cells. In words: HiBit protein abundance assay, MYB. It is filed as cell-based, human. To be noted: K562 HiBiT-modified cells, 24 hours, luminescence. On the procedure: as §1, with “Clones [table]” for “Clones”
For another experiment, the system named is K562 cells. In words: Cell Titer Glo 2.0 cell viability assay. It is filed as cell-based. To be noted: Homo sapiens, 500 cells/well, 72 hours. On the procedure:
Compounds described herein were screened for toxicity in K562 (human chronic myelogenous leukemia) and SH-SY5Y (human neuroblastoma) cells using a Cell Titer Glo 2.0 assay. • Promega CellTiter-Glo® 2.0 Cell Viability Assay (cat #G9241) • Corning 384-well TC-treated microplates (cat #3570) Cells were plated at 500 cells/well (K562 cells) in 45 μL of IMDM supplemented with 10% FBS in a 384-well opaque plate. Wells containing only medium were used as a blank control. Test compounds (e.g., compounds of Formula (I), (II), or (III)) were first serially diluted in DMSO then diluted 1:100 with IMDM+10% FBS. The final concentration of DMSO was 0.1% in each well. The cells were incubated for 72 hours at 37° C. and 5% CO2 before assaying with Cell Titer Glo 2.0 reagent.

Data on 20 compounds can be found in US20250082633A1, “COMPOUNDS AND METHODS FOR MODULATING SPLICING” (REMIX THERAPEUTICS INC., priority 2021, published 2025).

Structures can show the parent of a compound that is named as a salt.

With `Cc1cn2nc(-c3cc4cn(C5CCNCC5)nc4cn3)cc(C)c2n1` [Compound 147, 2,8-dimethyl-6-[2-(4-piperidyl)pyrazolo[3,4-c]pyridin-5-yl]imidazo[1,2-b]pyridazine], the IC50 (in the experiment with Target C; in experiment [1]) was 100 to 1000 nM in each case. The compound further returned a GI50 in the experiment with K562 cells of 100 to 1000 nM.

For `Cn1cc2cc(-c3ccc4nn(C5CCNCC5)cc4n3)c(O)cc2n1` [Compound 110, 2-methyl-5-[2-(4-piperidyl)pyrazolo[4,3-b]pyridin-5-yl]indazol-6-ol], the IC50 (in the experiment on Target C; in experiment [1]) was 100 to 1000 nM each time. Moreover, the GI50 in the experiment with K562 cells fell in the range of 1000 to 10000 nM.

`Cc1cn2nc(-c3cc(F)c4nn(C5CCNCC5)cc4c3)cc(C)c2n1` [Compound 122, 6-(7-fluoro-2-(piperidin-4-yl)-2H-indazol-5-yl)-2,8-dimethylimidazo [1,2-b]pyridazine hydrochloride salt]: the IC50 (in the experiment on Target C; in experiment [1]) was less than 100 nM each time. Besides, in the experiment on K562 cells, the 50% growth inhibitory concentration (GI50) is less than 100 nM.

Turning to `Cc1nc2c(F)cc(-c3cc(F)c4nn(C5CCNCC5)cc4c3)cc2o1` [Compound 136, 4-fluoro-6-[7-fluoro-2-(4-piperidyl)indazol-5-yl]-2-methyl-1,3-benzoxazole], the half-maximal inhibitory concentration (IC50) in the experiment on Target C was less than 100 nM; in experiment [1] it was 100 to 1000 nM. This compound also yielded a GI50 in the experiment on K562 cells of 100 to 1000 nM.

Take `Cn1cc2cc(-c3cc(F)c4nn(C5CCNCC5)cc4c3)ccc2n1` [Compound 145, 7-fluoro-5-(2-methylindazol-5-yl)-2-(4-piperidyl)indazole]: the IC50 (in the experiment on Target C; in experiment [1]) was 100 to 1000 nM each time. For the same compound, the GI50 with K562 cells lay within 1000 to 10000 nM.

As for `Cc1cn2nc(-c3cc(F)c4nn(C5CCN(CCO)CC5)cc4c3)cc(C)c2n1` [Compound 160, 2-[4-[5-(2,8-dimethylimidazo[1,2-b]pyridazin-6-yl)-7-fluoro-indazol-2-yl]-1-piperidyl]ethanol], the IC50 is less than 100 nM with Target C and 100 to 1000 nM in experiment [1]. This compound also returned a GI50 in the experiment with K562 cells of 100 to 1000 nM.

On to `Cc1cc(-n2cc3cc(N4CCNCC4)cc(F)c3n2)cc2cn(C)nc12` [Compound 117, 2-(2,7-dimethylindazol-5-yl)-7-fluoro-5-piperazin-1-yl-indazole], for which the values for the IC50 (with Target C; in experiment [1]) were greater than 10000 nM and 1000 to 10000 nM, respectively. The 50% growth inhibitory concentration (GI50) in the experiment on K562 cells was 1000 to 10000 nM.

As to `Cc1cn2cc(-c3cc(F)c4nn(C5CCNCC5)cc4c3)cc(Cl)c2n1` [Compound 127, 5-(8-chloro-2-methylimidazo[1,2-a]pyridin-6-yl)-7-fluoro-2-(piperidin-4-yl)-2H-indazole hydrochloride salt], the results for the IC50 (in the experiment with Target C; in experiment [1]) were less than 100 nM and 100 to 1000 nM, respectively. The compound further registered a GI50 in the experiment with K562 cells of 100 to 1000 nM.

In the case of `CCN1CCC(n2cc3cc(-c4cc(C)c5nc(C)cn5n4)cc(F)c3n2)CC12CC2` (stereo not drawn) [Compound 177, 6-[2-(4-ethyl-4-azaspiro[2.5]octan-7-yl)-7-fluoro-indazol-5-yl]-2,8-dimethyl-imidazo[1,2-b]pyridazine], the concentration for half-maximal inhibition (IC50) in the experiment on Target C was less than 100 nM; in experiment [1], 100 to 1000 nM. The GI50 in the experiment on K562 cells was 100 to 1000 nM.

For the compound `Cc1nc2ccc(-c3cc(F)c4nn(C5CCNCC5)cc4c3)cc2s1` [Compound 134, 6-(7-fluoro-2-(piperidin-4-yl)-2H-indazol-5-yl)-2-methylbenzo[d]thiazole], the IC50 (in the experiment on Target C; in experiment [1]) was 1000 to 10000 nM throughout. In the experiment with K562 cells, this compound showed a GI50 of 1000 to 10000 nM.

With `Fc1cc(-c2ccc3ccncc3c2)cc2cn(C3CCNCC3)nc12` [Compound 158, 7-[7-fluoro-2-(4-piperidyl)indazol-5-yl]isoquinoline], the IC50 (with Target C; in experiment [1]) was 1000 to 10000 nM each time. The same compound yielded a GI50 in the experiment with K562 cells of 1000 to 10000 nM.

Turning to `Cc1cn2nc(-c3cc(F)c4nn(C5CCNCC5)cc4c3)cc2c(C)n1` [Compound 124, 2-[7-fluoro-2-(4-piperidyl)indazol-5-yl]-4,6-dimethyl-pyrazolo[1,5-a]pyrazine], the IC50 with Target C is less than 100 nM; in experiment [1], 100 to 1000 nM. In the experiment with K562 cells, the 50% growth inhibitory concentration (GI50) was 100 to 1000 nM.

`Cc1cn2nc(-c3ccc4nn(C5CCNCC5)cc4c3)cc(C)c2n1` [Compound 192, 2,8-dimethyl-6-[2-(4-piperidyl)indazol-5-yl]imidazo[1,2-b]pyridazine]: the IC50 (with Target C; in experiment [1]) was 100 to 1000 nM throughout. Besides, the GI50 in the experiment on K562 cells is 100 to 1000 nM.

Consider `Cc1cn2nc(-c3cc4cn(C5CCNCC5)nc4c(O)n3)cc(C)c2n1` [Compound 139, 5-(2,8-dimethylimidazo[1,2-b]pyridazin-6-yl)-2-(4-piperidyl)-6H-pyrazolo[3,4-c]pyridin-7-one], for which the IC50 (with Target C; in experiment [1]) was 100 to 1000 nM throughout.

As for `COc1cc2nn(C3CCNCC3)cc2cc1-c1cc(C)c2nc(C)cn2n1` [Compound 159, 6-(6-methoxy-2-(piperidin-4-yl)-2H-indazol-5-yl)-2,8-dimethylimidazo[1,2-b]pyridazine], the IC50 (with Target C; in experiment [1]) was greater than 10000 nM throughout. Also, in the experiment on K562 cells, the GI50 is greater than 10000 nM.

`Cc1cn2nc(-c3cc4cn(C5CCNCC5)nc4c(OCc4ccccc4)n3)cc(C)c2n1` [Compound 153, 6-[7-benzyloxy-2-(4-piperidyl)pyrazolo [3,4-c]pyridin-5-yl]-2,8-dimethyl-imidazo[1,2-b]pyridazine]: the IC50 (in the experiment with Target C; in experiment [1]) was 1000 to 10000 nM in each case.

On to `Cc1cn2nc(-c3cc(F)c4nn(C5CCN(C)CC5)cc4c3)cc(C)c2n1` [Compound 150, 6-[7-fluoro-2-(1-methyl-4-piperidyl)indazol-5-yl]-2,8-dimethyl-imidazo[1,2-b]pyridazine], for which the 50% inhibitory concentration (IC50) in the experiment on Target C is less than 100 nM; in experiment [1], 100 to 1000 nM.

Turning to `Cn1cc2cc(-c3cc(Cl)c4nn(C5CCNCC5)cc4n3)c(O)cc2n1` [Compound 141], the IC50 (in the experiment with Target C; in experiment [1]) was greater than 10000 nM in each case.

With `Cc1cn2nc(-c3cc(F)c4nn(C5CCN(C6CCC6)CC5)cc4c3)cc(C)c2n1` [Compound 151, 6-[2-(1-cyclobutyl-4-piperidyl)-7-fluoro-indazol-5-yl]-2,8-dimethyl-imidazo [1,2-b] pyridazine], the IC50 (with Target C; in experiment [1]) was less than 100 nM each time.

With `Cc1cn2nc(-c3cc(F)c4nn(C5CCN(CCF)CC5)cc4c3)cc(C)c2n1` [Compound 152], the IC50 (in the experiment on Target C; in experiment [1]) was 100 to 1000 nM in each case.
